This is an account of results in US12441727B2, “Tricyclic compounds as inhibitors of KRAS” (Incyte Corporation, priority 2021, dated 2025).

Where two headings read alike, the source gives them in different places.

One data set relates to KRAS_G12C pERK. Nature of the data set: Cellular pERK HTRF assay (KRAS_G12C pERK assay). It is filed as cell-based, human. Conditions: KRAS G12C cells, 4 hours incubation with compound, read-out: G12C_pERK. An outline of the steps:
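KRAS-mutant (G12C, G12D, G12V) and KRAS WT cancer cell lines, plated overnight in RPMI/10% FBS, were treated with compound (0.1% DMSO) at 37 °C for 4 h (G12C, G12V) or 2 h (G12D). Lysates were probed with anti-phospho-ERK1/2 HTRF antibody pair read at 665/620 nm; IC50 fitted.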
A general note: TR-FRET usually uses a lanthanide donor and a delayed reading to cut background.

In data set [1] the test system is KRAS_G12C pERK in MIA PaCa-2 cells. Nature of the data set: Whole Blood pERK1/2 HTRF assay (KRAS_G12C WB pERK assay). The following applies: compound in whole blood, 4 hours, read-out: G12C_WB_pERK. It counts as cell-based, human. The procedure:
MIA PaCa-2 cells (KRAS G12C; ATCC® CRL-1420), HPAF-II (KRAS G12D; ATCC® CRL-1997) and YAPC (KRAS G12V; DSMZ ACC382) are maintained in RPMI 1640 with 10% FBS (Gibco/Life Technologies). For MIA PaCa-2 assay, cells are seeded into 96 well tissue culture plates (Corning #3596) at 25000 cells per well in 100 uL media and cultured for 2 days at 37° C., 5% CO2 before the assay. For HPAF-II and YAPC assay, cells are seeded in 96 well tissue culture plates at 50000 cells per well in 100 uL media and cultured for 1 day before the assay. Whole Blood are added to the 1 uL dots of compounds (prepared in DMSO) in 96 well plates and mixed gently by pipetting up and down so that the concentration of the compound in blood is 1× of desired concentration, in 0.5% DMSO. The media is aspirated from the cells and 50 uL per well of whole blood with test compound is added and incubated for 4 hours for MIA PaCa and YAPC assay; or 2 hours for HPAF-II assay, respectively at 37° C., 5% CO2. After dumping the blood, the plates are gently washed twice by adding PBS to the side of the wells and dumping the PBS from the plate onto a paper towel, tapping the plate to drain well. Fifty ul/well of 1× lysis buffer #1 (Cisbio) with blocking reagent (Cisbio) and Benzonase nuclease (Sigma Cat #E1014-5KU, 1:10000 final concentration) is then added and incubated at room temperature for 30 minutes with shaking (250 rpm). Following lysis, 16 uL of lysate is transferred into 384-well Greiner small volume white plate using an Assist Plus (Integra Biosciences, NH). Four uL of 1:1 mixture of anti Phospho-ERK 1/2 d2 and anti Phospho-ERK 1/2 Cryptate (Cisbio) is added to the wells using the Assist Plus and incubated at room temperature overnight in the dark. Plates are read on the Pherastar plate reader at 665 nm and 620 nm wavelengths. Data are analyzed in Genedata Screener using SmartFit for IC50 values.

Data set [2] can be described thus: Human whole blood stability. It counts as in vitro ADME. The following applies: percent remaining at 4 hr, 1 μM, 37° C. The procedure: The whole blood stability of the exemplified compounds was determined by LC-MS/MS. The 96-Well Flexi-Tier™ Block (Analytical Sales & Services, Inc, Flanders, NJ) is used for the incubation plate containing 1.0 mL glass vials with 0.5 mL of blood per vial (pooled gender, human whole blood sourced from BIOIVT, Hicksville, NY or similar). Blood is pre-warmed in water bath to 37° C. for 30 minutes. 96-deep well analysis plate is prepared with the addition of 100 μL ultrapure water/well. 50 μL chilled ultrapure water/well is added to 96-deep well sample collection plate and covered with a sealing mat. 1 μL of 0.5 mM compound working solution (DMSO:water) is added to the blood in incubation plate to reach final concentrations of 1 μM, mixed by pipetting thoroughly and 50 μL is transferred 50 into the T=0 wells of the sample collection plate. Blood is allowed to sit in the water for 2 minutes and then 400 μL stop solution/well is added (acetonitrile containing an internal standard). The incubation plate is placed in the Incu-Shaker CO2 Mini incubator (Benchmark Scientific, Sayreville, NJ) at 37° C. with shaking at 150 rpm. At 1, 2 and 4-hr, the blood samples are mixed thoroughly by pipetting and 50 μL is transferred into the corresponding wells of the sample collection plate. Blood is allowed to sit in the water for 2 minutes and then 400 μL of stop solution/well is added. The collection plate is sealed and vortexed at 1700 rpm for 3 minutes (VX-2500 Multi-Tube Vortexer, VWR International, Radnor, PA), and samples are then centrifuged in the collection plate at 3500 rpm for 10 minutes (Allegra X-14R Centrifuge Beckman Coulter, Indianapolis, IN). 100 μL of supernatant/well is transferred from the sample collection plate into the corresponding wells of the analysis plate. The final plate is vortexed at 1700 rpm for 1 minute and analyze samples by LC-MS/MS. The peak area ratio of the 1, 2, and 4 hr samples relative to T=0 is used to determine the percent remaining. The natural log of the percent remaining versus time is used determine a slope to calculate the compounds half-life in blood (t1/2=0.693/slope).

In a further data set the target is KRAS G12C (Homo sapiens, UniProt P01116, G12C). As to the kind of experiment: GDP-GTP exchange assay (KRAS_G12C exchange assay). It counts as biochemical. The following applies: bodipy-loaded KRAS G12C 2.5 nM, SOS1 150 nM, 2 hours pre-incubation with inhibitor; read-out: G12C_exchange. An outline of the steps: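 Bodipy-GDP-loaded KRAS G12C (2.5 nM final) preincubated 2 hours with compound in 25 mM Hepes pH 7.5, 50 mM NaCl, 10 mM MgCl2, 0.01% Brij-35; exchange started with 500 uM GppNHp and 150 nM SOS1, run 2 hours at ambient temperature. Fluorescence read at 485/520 nm; IC50 by four-parameter logistic fit.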
Chain of KRAS G12C (P01116 1-188 isoform P01116-2 G12C): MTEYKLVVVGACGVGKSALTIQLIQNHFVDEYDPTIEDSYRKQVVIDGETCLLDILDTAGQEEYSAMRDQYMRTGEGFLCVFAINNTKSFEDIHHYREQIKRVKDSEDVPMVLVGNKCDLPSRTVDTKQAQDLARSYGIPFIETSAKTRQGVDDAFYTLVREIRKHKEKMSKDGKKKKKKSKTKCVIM

Take `CN(C)C1(C)CN(c2nc3c(Cl)c(-c4ccc(F)c5cccnc45)c(Cl)cc3c3c2nnn3[C@H]2CCN(C(=O)/C=C/CF)[C@H](CC#N)C2)C1` (single isomer, unassigned) [Example 19a]: the IC50 with KRAS_G12C pERK (Homo sapiens, 4 h) is not above 50 nM; in data set [1] (Homo sapiens), not above 50 nM; at KRAS G12C it was not above 50 nM. Also, the “Human whole blood stability at 4 hr” value in data set [2] is given as “†† (WBS >70% but ≤90%)”.
On to `COC/C=C/C(=O)N1CC[C@H](n2nnc3c(N4CC(C)(N(C)C)C4)nc4c(F)c(-c5ccc(F)c6cccnc56)c(C(F)(F)F)cc4c32)C[C@H]1CC#N` (single isomer, unassigned) [Example 20], for which the IC50 with KRAS_G12C pERK (Homo sapiens, 4 h) is not above 50 nM; in data set [1] (Homo sapiens), 100 to 1000 nM; at KRAS G12C, not above 50 nM. In addition, the “Human whole blood stability at 4 hr” value in data set [2] is recorded as “††† (WBS >90%)”.
Regarding `COC/C=C/C(=O)N1CC[C@H](n2nnc3c(O[C@@H](C)[C@@H]4CCCN4C)nc4c(F)c(-c5cnc(C)c6ccccc56)c(C)cc4c32)C[C@H]1CC#N` (single isomer, unassigned) [Example 26b], the results for the IC50 (with KRAS_G12C pERK; in data set [1]; at KRAS G12C) were not above 50 nM, 50 to 100 nM and not above 50 nM, respectively. Also, the “Human whole blood stability at 4 hr” value in data set [2] was “†† (WBS >70% but ≤90%)”.
In the case of `C=CC(=O)N1CC[C@H](n2nnc3c(O[C@@H](C)[C@@H]4CCCN4C)nc4c(F)c(-c5cccc6c5c(CC#N)nn6C)c(C)cc4c32)C[C@H]1C` (single isomer, unassigned) [Example 28b], the IC50 in the data set with KRAS_G12C pERK (Homo sapiens, 4 h) was not above 50 nM; in data set [1] (Homo sapiens) it was 50 to 100 nM; at KRAS G12C, not above 50 nM. For the same molecule, the “Human whole blood stability at 4 hr” value in data set [2] is given as “†† (WBS >70% but ≤90%)”.
For `C=C(F)C(=O)N1CC[C@H](n2nnc3c(N4CC(C)(N(C)CC)C4)nc4c(F)c(-c5c(C)c(F)cc6[nH]ncc56)c(C)cc4c32)C[C@H]1CC#N` (single isomer, unassigned) [Example 29], the IC50 in the data set with KRAS_G12C pERK (Homo sapiens, 4 h) was not above 50 nM; in data set [1] (Homo sapiens), 100 to 1000 nM; on KRAS G12C, not above 50 nM. Further, in data set [2], the “Human whole blood stability at 4 hr” value was “††† (WBS >90%)”.
`C=C(F)C(=O)N1CC[C@H](n2nnc3c(N4CC(C)(N(C)CC)C4)nc4c(F)c(-c5c(C)c(C)cc6[nH]ncc56)c(C)cc4c32)C[C@H]1CC#N` (single isomer, unassigned) [Example 30]: the IC50 in the data set with KRAS_G12C pERK (Homo sapiens, 4 h) is not above 50 nM; in data set [1] (Homo sapiens) it was 50 to 100 nM; on KRAS G12C, not above 50 nM. Further, the “Human whole blood stability at 4 hr” value in data set [2] is given as “††† (WBS >90%)”.
For `C=CC(=O)N1CC[C@H](n2nnc3c(O[C@@H](C)[C@@H]4CCCN4C)nc4c(F)c(-c5cccc6c5c(CC#N)cn6C)c(C)cc4c32)C[C@H]1C` (single isomer, unassigned) [Example 31b], the IC50 was not above 50 nM in the data set on KRAS_G12C pERK (Homo sapiens, 4 h); 50 to 100 nM in data set [1] (Homo sapiens); not above 50 nM at KRAS G12C. Further, the “Human whole blood stability at 4 hr” value in data set [2] was “†† (WBS >70% but ≤90%)”.
For `C=CC(=O)N1CCC(n2nnc3c(O[C@@H](C)[C@@H]4CCCN4C)nc4c(F)c(-c5cccc6c5c(CC#N)cn6C)c(C)cc4c32)CC1` (single isomer, unassigned) [Example 32b], the IC50 in the data set with KRAS_G12C pERK (Homo sapiens, 4 h) was not above 50 nM; in data set [1] (Homo sapiens) it was not above 50 nM; at KRAS G12C, not above 50 nM. In data set [2], the “Human whole blood stability at 4 hr” value is recorded as “†† (WBS >70% but ≤90%)”.
Turning to `C=C(F)C(=O)N1CC[C@H](n2nnc3c(N4CC(C)(N(C)CC)C4)nc4c(F)c(-c5c(C)c(C)cc6[nH]ncc56)c(Cl)cc4c32)C[C@H]1CC#N` (single isomer, unassigned) [Example 33a], the IC50 was not above 50 nM in the data set on KRAS_G12C pERK (Homo sapiens, 4 h); 50 to 100 nM in data set [1] (Homo sapiens); not above 50 nM at KRAS G12C. Moreover, the “Human whole blood stability at 4 hr” value in data set [2] was “†† (WBS >70% but ≤90%)”.
For `C=C(F)C(=O)N1CC[C@H](n2nnc3c(N4CC(C)(N(C)CC)C4)nc4c(F)c(-c5c(C)c(F)cc6[nH]ncc56)c(Cl)cc4c32)C[C@H]1CC#N` (single isomer, unassigned) [Example 35a], the IC50 was not above 50 nM with KRAS_G12C pERK (Homo sapiens, 4 h); 50 to 100 nM in data set [1] (Homo sapiens); not above 50 nM on KRAS G12C. Further, in data set [2], the “Human whole blood stability at 4 hr” value is “††† (WBS >90%)”.
As for `Cc1cc2c(nc(O[C@@H](C)[C@@H]3CCCN3C)c3nnn([C@H]4CCN(C(=O)/C=C/CF)[C@H](CC#N)C4)c32)c(F)c1-c1ccc2cnn(C)c2c1` [Example 7, 2-((2S,4S)-4-(6-fluoro-8-methyl-7-(1-methyl-1H-indazol-6-yl)-4-((S)-1-((S)-1-methylpyrrolidin-2-yl)ethoxy)-1H-[1,2,3]triazolo[4,5-c]quinolin-1-yl)-1-((E)-4-fluorobut-2-enoyl)piperidin-2-yl)acetonitrile], the IC50 in the data set with KRAS_G12C pERK (Homo sapiens, 4 h) is not above 50 nM; in data set [1] (Homo sapiens), not above 50 nM; at KRAS G12C, not above 50 nM. Also, in data set [2], the “Human whole blood stability at 4 hr” value is “††† (WBS >90%)”.
For the molecule `Cc1ccc(-c2c(C)cc3c(nc(O[C@@H](C)[C@@H]4CCCN4C)c4nnn([C@H]5CCN(C(=O)/C=C/CF)[C@H](CC#N)C5)c43)c2F)cn1` [Example 8, 2-((2S,4S)-4-(6-fluoro-8-methyl-7-(6-methylpyridin-3-yl)-4-((S)-1-((S)-1-methylpyrrolidin-2-yl)ethoxy)-1H-[1,2,3]triazolo[4,5-c]quinolin-1-yl)-1-((E)-4-fluorobut-2-enoyl)piperidin-2-yl)acetonitrile], the IC50 with KRAS_G12C pERK (Homo sapiens, 4 h) is not above 50 nM; in data set [1] (Homo sapiens), not above 50 nM; on KRAS G12C, not above 50 nM. In addition, in data set [2], the “Human whole blood stability at 4 hr” value is listed as “†† (WBS >70% but ≤90%)”.
As to `COC/C=C/C(=O)N1CC[C@H](n2nnc3c(O[C@@H](C)[C@@H]4CCCN4C)nc4c(F)c(-c5ccc(F)cc5)c(C)cc4c32)C[C@H]1CC#N` [Example 10, 2-((2S,4S)-4-(6-fluoro-7-(4-fluorophenyl)-8-methyl-4-((S)-1-((S)-1-methylpyrrolidin-2-yl)ethoxy)-1H-[1,2,3]triazolo[4,5-c]quinolin-1-yl)-1-((E)-4-methoxybut-2-enoyl)piperidin-2-yl)acetonitrile], the IC50 is not above 50 nM with KRAS_G12C pERK (Homo sapiens, 4 h); not above 50 nM in data set [1] (Homo sapiens); not above 50 nM on KRAS G12C. Moreover, in data set [2], the “Human whole blood stability at 4 hr” value is recorded as “††† (WBS >90%)”.
